Measurements published in the NIST ThermoML archive (doi:10.1016/j.jct.2017.06.013).

Test: xn = mol fraction of the nth substance listed
Conditions: Liquid, Vibrating tube method

CC(C)OC(C)C [diisopropyl ether] + CCCCCCO
mass density [kg/m3]
Conditions | x1 = 0.1524 | x1 = 0.3196 | x1 = 0.4906 | x1 = 0.6974 | x1 = 0.8457
333.15 K, 140000 kPa | – | – | 831.4 | 817.4 | 807
353.15 K, 100 kPa | 759.2 | 741.7 | 722.5 | 698 | 679.1
353.15 K, 500 kPa | 759.5 | 742.1 | 723 | 698.5 | 679.8
353.15 K, 1000 kPa | 760 | 742.7 | 723.6 | 699.3 | 680.7
353.15 K, 2000 kPa | 761 | 743.8 | 724.9 | 700.8 | 682.5
353.15 K, 5000 kPa | 764 | 747.1 | 728.8 | 705.4 | 687.6
353.15 K, 10000 kPa | 768.7 | 752.4 | 734.8 | 712.3 | 695.5
353.15 K, 15000 kPa | 773.1 | 757.3 | 740.2 | 718.7 | 702.5
353.15 K, 20000 kPa | 777.3 | 761.9 | 745.3 | 724.5 | 708.9
353.15 K, 30000 kPa | 785 | 770.4 | 754.6 | 735 | 720.4
353.15 K, 40000 kPa | 792 | 778 | 762.9 | 744.3 | 730.4
353.15 K, 50000 kPa | 798.5 | 785 | 770.5 | 752.6 | 739.4
353.15 K, 60000 kPa | 804.6 | 791.6 | 777.6 | 760.6 | 747.7
353.15 K, 70000 kPa | 810.3 | 797.7 | 784.2 | 767.6 | 755.2
353.15 K, 80000 kPa | 815.7 | 803.3 | 790.1 | 774.1 | 762.1
353.15 K, 90000 kPa | 820.8 | 808.9 | 796.1 | 780.4 | 768.7
353.15 K, 100000 kPa | 825.7 | 814 | 801.5 | 786.2 | 774.8
353.15 K, 110000 kPa | 830.4 | 818.9 | 806.7 | 791.7 | 780.5
353.15 K, 120000 kPa | 834.9 | 823.6 | 811.6 | 796.9 | 786
353.15 K, 130000 kPa | 839.1 | 828 | 816.3 | 801.9 | 791.1
353.15 K, 140000 kPa | 843.2 | 832.4 | 820.8 | 806.6 | 796
373.15 K, 100 kPa | 741.8 | 723.3 | 702.7 | 676.5 | 656.3
373.15 K, 500 kPa | 742 | 723.5 | 703.1 | 677 | 657
373.15 K, 1000 kPa | 742.6 | 724.1 | 703.9 | 678 | 658.1
373.15 K, 2000 kPa | 743.8 | 725.5 | 705.4 | 679.9 | 660.3
373.15 K, 5000 kPa | 747.1 | 729.2 | 709.9 | 685.2 | 666.5
373.15 K, 10000 kPa | 752.4 | 735.3 | 716.7 | 693.4 | 675.7
373.15 K, 15000 kPa | 757.3 | 740.8 | 723 | 700.7 | 683.8
373.15 K, 20000 kPa | 761.9 | 745.9 | 728.8 | 707.3 | 691.2
373.15 K, 30000 kPa | 770.5 | 755.4 | 739.1 | 719.1 | 704.1
373.15 K, 40000 kPa | 778.2 | 763.8 | 748.4 | 729.4 | 715.3
373.15 K, 50000 kPa | 785.2 | 771.3 | 756.6 | 738.5 | 725
373.15 K, 60000 kPa | 791.8 | 778.4 | 764.2 | 746.9 | 733.9
373.15 K, 70000 kPa | 797.9 | 784.9 | 771.3 | 754.5 | 742
373.15 K, 80000 kPa | 803.8 | 791.2 | 778 | 761.8 | 749.5
373.15 K, 90000 kPa | 809.2 | 796.9 | 784 | 768.3 | 756.4
373.15 K, 100000 kPa | 814.3 | 802.4 | 789.8 | 774.4 | 762.8
373.15 K, 110000 kPa | 819.4 | 807.6 | 795.3 | 780.3 | 769
373.15 K, 120000 kPa | 824.2 | 812.6 | 800.6 | 785.9 | 774.7
373.15 K, 130000 kPa | 828.6 | 817.3 | 805.5 | 791.1 | 780.2
373.15 K, 140000 kPa | 833 | 821.8 | 810.2 | 796.1 | 785.3
393.15 K, 500 kPa | 724.7 | 705 | 683.5 | 655.7 | 634.2
393.15 K, 1000 kPa | 725.4 | 705.7 | 684.4 | 656.8 | 635.6
393.15 K, 2000 kPa | 726.7 | 707.3 | 686.3 | 659.1 | 638.4
393.15 K, 5000 kPa | 730.5 | 711.7 | 691.5 | 665.6 | 645.9
393.15 K, 10000 kPa | 736.6 | 718.7 | 699.5 | 675.3 | 657
393.15 K, 15000 kPa | 742.1 | 724.9 | 706.6 | 683.6 | 666.4
393.15 K, 20000 kPa | 747.3 | 730.7 | 713.2 | 691.2 | 674.9
393.15 K, 30000 kPa | 756.7 | 741.1 | 724.7 | 704.4 | 689.3
393.15 K, 40000 kPa | 765.3 | 750.4 | 735 | 715.8 | 701.7
393.15 K, 50000 kPa | 772.8 | 758.6 | 743.9 | 725.7 | 712.2
393.15 K, 60000 kPa | 779.9 | 766.4 | 752.2 | 734.8 | 721.9
393.15 K, 70000 kPa | 786.7 | 773.5 | 759.9 | 743.1 | 730.7
393.15 K, 80000 kPa | 792.8 | 779.9 | 766.8 | 750.5 | 738.5
393.15 K, 90000 kPa | 798.6 | 786.1 | 773.4 | 757.6 | 745.9
393.15 K, 100000 kPa | 804.1 | 791.8 | 779.5 | 764.1 | 752.7
393.15 K, 110000 kPa | 809.4 | 797.5 | 785.4 | 770.3 | 759.2
393.15 K, 120000 kPa | 814.4 | 802.7 | 790.8 | 776.1 | 765.1
393.15 K, 130000 kPa | 819.1 | 807.6 | 796 | 781.5 | 770.8
393.15 K, 140000 kPa | 823.7 | 812.4 | 801 | 786.8 | 776.3
